Experimental findings from US20160201063A1, “EPIGENETIC REGULATORS OF FRATAXIN” (RANA THERAPEUTICS, INC., priority 2013, published 2016) are described below.

Data set [1] relates to FXN mRNA. Put plainly: Gapmer screen in differentiated myotubes, FXN mRNA levels. The data set is classed as cell-based. The note with it: 4 days after transfection. The source says: Subsequently, various oligos targeting ACTL6A, EID1, HIC1, JUND, KAT2A, PRKCD, and YEATS4 were screened in differentiated myotubes for FXN mRNA levels. Measurements were taken 4 days after transfection.

Data set [2] concerns FXN protein. Description: Western blot of FXN protein in gapmer-treated GM03816 lysates. The data set is classed as cell-based, human. The following applies: treated vs untreated. The source says: Next, a Western blot with the Abcam ab48281 FXN and Abcam ab125267 tubulin antibodies were run using treated and untreated GM03816 lysates.
In general terms: A western blot detects proteins with antibodies after separation by electrophoresis.

In data set [3] the test system is FXN protein. Description: FXN protein western blot in GM03816 and GM04078 cells treated with histone lysine methyltransferase inhibitor. Format: cell-based, human. The following applies: 3 days of HLMi treatment, 5 μM, 2.5 μM, 1.25 μM, vs DMSO. As to the method: Results from control cells treated with DMSO and without inhibitor treatment are also shown.
Human FRDA diseased cell lines GM03816 and GM04078 were plated at 150000 cells/well. The cells were treated at various concentrations and times with a histone lysine methyltransferase inhibitor dissolved in DMSO. The antibody used for detection of FXM protein was Abcam human FXN antibody (ab48281).

Data set [4] relates to FXN mRNA. Description: Screen of epigenetic inhibitors in GM0321 normal fibroblasts, FXN RNA levels. The following applies: for fold induction at 1 µM / fold induction at 5 µM: Homo sapiens, Fibroblast, 72 h; for fold induction at 1 µM: read-out: FXN mRNA fold change, 321B 1 uM; for fold induction at 5 µM: read-out: FXN mRNA fold change, 321B 5 uM. Format: cell-based, human.

In data set [5] the test system is FXN mRNA. Description: Screen of library of eighty epigenetic inhibitors in GM03816 FRDA diseased fibroblasts, FXN mRNA fold change. The data set is classed as cell-based, human. The following applies: for fold induction at 1 µM / fold induction at 5 µM: Homo sapiens, Fibroblast, 72 h; for fold induction at 1 µM: read-out: 3816 1 uM (FXN mRNA fold change); for fold induction at 5 µM: read-out: 3816 5 uM (FXN mRNA fold change). On the procedure:
FXN RNA levels are indicated on the y-axis and the inhibitors used at both 1 μM and 5 μM are shown on the x-axis.
A screen of a library of eighty epigenetic inhibitors (Cayman Chemical) was performed in GM03816 FRDA fibroblasts to identify epigenetic regulators that upregulate FXN expression.

Where [6] appears, read: GM0321 normal fibroblasts, 1 uM inhibitor, 3 days of treatment.
Setting [7] is: GM0321 normal fibroblasts, 5 uM inhibitor, 3 days of treatment.
Setting [8] is: GM03816 FRDA diseased fibroblasts, 1 uM inhibitor, 3 days of treatment.
Where [9] appears, read: GM03816 FRDA diseased fibroblasts, 5 uM inhibitor, 3 days of treatment.

In the case of “KAT2A-06: LNA/DNA gapmer to human KAT2A, SEQ ID NO 36, GGCGATATACTCCTT (LNA modifications, chemistry not fully specified)”, the “FXN mRNA level” value in the data set on FXN mRNA [1] is recorded as “upregulation of FXN mRNA”.

“HIC1-1: LNA/DNA gapmer to human HIC1, SEQ ID NO 70, GGCCGGTGTAGATGA (LNA modifications, chemistry not fully specified)”: the “FXN mRNA level” value in the data set with FXN mRNA [1] is “upregulation of FXN mRNA”.

For “ACTL6A-02: LNA/DNA gapmer to human ACTL6A, SEQ ID NO 2, ATCGCCATCTATTTC (LNA modifications, chemistry not fully specified)”, the “FXN mRNA level” value in the data set on FXN mRNA [1] is “upregulation of FXN mRNA”.

On to “PRKCD-2: LNA/DNA gapmer to human PRKCD, SEQ ID NO 42, TGCGCATAGACTGTT (LNA modifications, chemistry not fully specified)”, for which the “FXN protein level (western blot)” value in the data set with FXN protein [2] is reported as “strong upregulation”. Further, the “FXN mRNA level” value in the data set with FXN mRNA [1] is recorded as “upregulation of FXN mRNA”.

With “JUND-6: LNA/DNA gapmer to human JUND, SEQ ID NO 66, TGGCTCGTCCTTGAG (LNA modifications, chemistry not fully specified)”, in the data set on FXN mRNA [1], the “FXN mRNA level” value is reported as “upregulation of FXN mRNA”.

With “EID1-04: LNA/DNA gapmer to human EID1, SEQ ID NO 12, AGCTCTTCGATAAAA (LNA modifications, chemistry not fully specified)”, the “FXN mRNA level” value with FXN mRNA [1] is reported as “upregulation of FXN mRNA”.

As to “YEATS4-9: LNA/DNA gapmer to human YEATS4, SEQ ID NO 91, AGTTTCACGACTTGC (LNA modifications, chemistry not fully specified)”, the “FXN mRNA level” value in the data set with FXN mRNA [1] is listed as “upregulation of FXN mRNA”.

As to “JUND-1: LNA/DNA gapmer to human JUND, SEQ ID NO 61, CCGTAGAAGGGTGTT (LNA/DNA gapmer, wing pattern not given here)”, in the data set on FXN protein [2], the “FXN protein level (western blot)” value is given as “strong upregulation”. Besides, in the data set with FXN mRNA [1], the “FXN mRNA level” value is on record as “upregulation of FXN mRNA”.

In the case of `COc1cc2nc(N3CCCN(C)CC3)nc(NC3CCN(Cc4ccccc4)CC3)c2cc1OC` [HLMi, 2-(Hexahydro-4-methyl-1H-1,4-diazepin-1-yl)-6,7-dimethoxy-N-(1-(phenylmethyl)-4-piperidinyl)-4-quinazolinamine], the “FXN protein level (western blot)” value with FXN protein [3] is recorded as “FXN human protein upregulation”.

For “KAT2A-05: LNA/DNA gapmer to human KAT2A, SEQ ID NO 35, CATTGACCAGCTCCA (LNA modifications, chemistry not fully specified)”, in the data set with FXN mRNA [1], the “FXN mRNA level” value was “upregulation of FXN mRNA”.

For the molecule “YEATS4-5: LNA/DNA gapmer to human YEATS4, SEQ ID NO 87, TCGAATTCACCCCAT (LNA modifications, chemistry not fully specified)”, the “FXN mRNA level” value in the data set on FXN mRNA [1] is given as “upregulation of FXN mRNA”.

For “ACTL6A-03: LNA/DNA gapmer to human ACTL6A, SEQ ID NO 3, GAACGACCATTAGCA (LNA modifications, chemistry not fully specified)”, in the data set with FXN protein [2], the “FXN protein level (western blot)” value was “strong upregulation”. Moreover, in the data set with FXN mRNA [1], the “FXN mRNA level” value was “upregulation of FXN mRNA”.

In the case of “ACTL6A-04: LNA/DNA gapmer to human ACTL6A, SEQ ID NO 4, GCCCAGTAGAACGAC (LNA modifications, chemistry not fully specified)”, the “FXN mRNA level” value with FXN mRNA [1] is recorded as “upregulation of FXN mRNA”.

On to `NC(=O)[C@H](CCCN=C(N)CCl)NC(=O)c1ccccc1` [Cl-Amidine], for which, in the data set on FXN mRNA [4] (setting [6]), the “FXN mRNA fold change, 321B 1 uM” value is 0.9432. Moreover, the “FXN mRNA fold change, 321B 5 uM” value with FXN mRNA [4] (setting [7]) is 0.9931. Besides, the “3816 1 uM (FXN mRNA fold change)” value in the data set with FXN mRNA [5] (setting [8]) stood at 1.153. Moreover, the “3816 5 uM (FXN mRNA fold change)” value in the data set on FXN mRNA [5] (setting [9]) is 0.9028.

`Oc1cc(O)cc(/C=C/c2ccc(O)c(O)c2)c1` [Picetannol]: the “FXN mRNA fold change, 321B 1 uM” value with FXN mRNA [4] (setting [6]) is reported as 0.5008. The “FXN mRNA fold change, 321B 5 uM” value in the data set with FXN mRNA [4] (setting [7]) was found to be 0.538. Further, the “3816 1 uM (FXN mRNA fold change)” value in the data set on FXN mRNA [5] (setting [8]) is 0.7867. Moreover, in the data set with FXN mRNA [5] (setting [9]), the “3816 5 uM (FXN mRNA fold change)” value is 0.5435.

Take `CN(C)NC(=O)CCC(=O)O` [Daminozide]: in the data set with FXN mRNA [4], the fold induction at 1 µM was determined as 1.04 and the fold induction at 5 µM worked out at 0.898. Besides, in the data set with FXN mRNA [5], the fold induction at 1 µM came to 0.824 and the fold induction at 5 µM came to 0.881.

For the molecule `Nc1ccccc1NC(=O)c1ccc(CNC(=O)OCc2cccnc2)cc1` [MS-275], in the data set with FXN mRNA [4] (setting [7]), the “FXN mRNA fold change, 321B 5 uM” value was 0.2713. Further, the “3816 1 uM (FXN mRNA fold change)” value in the data set on FXN mRNA [5] (setting [8]) worked out at 0.2266. The “3816 5 uM (FXN mRNA fold change)” value with FXN mRNA [5] (setting [9]) is given as 0.2333.

Turning to `COC(=O)CNC(=O)C(=O)OC` [DMOG], in the data set on FXN mRNA [4] (setting [6]), the “FXN mRNA fold change, 321B 1 uM” value worked out at 0.7317. Moreover, the “FXN mRNA fold change, 321B 5 uM” value with FXN mRNA [4] (setting [7]) is given as 0.9433. Moreover, in the data set on FXN mRNA [5] (setting [8]), the “3816 1 uM (FXN mRNA fold change)” value is 0.9685. Also, the “3816 5 uM (FXN mRNA fold change)” value with FXN mRNA [5] (setting [9]) is 0.9131.

`NC(=O)c1ccc(I)c([N+](=O)[O-])c1` [BSI-201]: the fold induction at 1 µM is 1.03 in the data set with FXN mRNA [4] (setting [6]) and 1.13 in the data set with FXN mRNA [5] (setting [8]). Further, the figures for the fold induction at 5 µM with FXN mRNA [4] (setting [7]) and in the data set on FXN mRNA [5] (setting [9]) were 0.985 and 0.844, respectively.

As for `CN(C)c1ccc(C(=O)NCCCCCC(=O)NO)cc1` [CAY10398], the “FXN mRNA fold change, 321B 1 uM” value in the data set on FXN mRNA [4] (setting [6]) worked out at 0.5049. Moreover, the “FXN mRNA fold change, 321B 5 uM” value in the data set with FXN mRNA [4] (setting [7]) worked out at 0.2106. Further, the “3816 1 uM (FXN mRNA fold change)” value in the data set on FXN mRNA [5] (setting [8]) stood at 0.6921. For the same molecule, in the data set on FXN mRNA [5] (setting [9]), the “3816 5 uM (FXN mRNA fold change)” value worked out at 0.2339.
